In US12655116B2, “Substituted isophthalic acid diamides” (Bayer Aktiengesellschaft, priority 2020, dated 2026):

How the values were obtained:
ABUTH [1] = assay: Pre-emergence herbicidal action against ABUTH; format: in vivo, Abutilon theophrasti; conditions: for Pre-emergence action against ABUTH (herbicidal activity) / pest or weed control at 80 g/ha: 80 g/ha, scored visually after 3 weeks vs untreated controls (100% = plants have died, 0% = like control plants); for Pre-emergence action against ABUTH (herbicidal activity in percent): dosage 20 g/ha, scored visually after 3 weeks vs untreated controls, 100% = plants have died, 0% = like control plants; for pest or weed control at 80 g/ha: Abutilon theophrasti, 504 h
Source text: (§1) Seeds of monocotyledonous and dicotyledonous weed plants and crop plants are laid out in sandy loam soil in wood-fiber pots and covered with soil. The compounds of the invention, formulated in the form of wettable powders (WP) or as emulsion concentrates (EC), are then applied to the surface of the covering soil in the form of an aqueous suspension or emulsion at a water application rate equivalent to 600 to 800 l/ha, with addition of 0.2% wetting agent. After the treatment, the pots are placed in a greenhouse and kept under good growth conditions for the trial plants. The damage to the test plants is scored visually after a test period of 3 weeks by comparison with untreated controls (herbicidal activity in percent (%): 100% activity=the plants have died, 0% activity=like control plants). […] The tables below illustrate, in an illustrative manner, the post-emergence herbicidal action of the compounds of the invention, the herbicidal activity being stated in percent.

ALOMY [2] = assay: Pre-emergence herbicidal action against ALOMY; format: in vivo, Alopecurus myosuroides; conditions: 80 g/ha, pre-emergence, scored visually after 3 weeks vs untreated controls (100% = plants have died, 0% = like control plants)
Source text: as §1

AMARE [3] = assay: Pre-emergence herbicidal action against AMARE; format: in vivo, Amaranthus retroflexus; conditions: for pest or weed control at 20 g/ha / pest or weed control at 80 g/ha: Amaranthus retroflexus, 504 h
Source text: as §1

AVEFA = assay: Pre-emergence herbicidal action against AVEFA; format: in vivo, Avena fatua; conditions: 80 g/ha, pre-emergence
Source text: as §1

ECHCG [4] = assay: Pre-emergence herbicidal action against ECHCG; format: in vivo, Echinochloa crus-galli; conditions: 80 g/ha
Source text: as §1

MATIN [5] = assay: Pre-emergence herbicidal action against MATIN; format: in vivo, Matricaria inodora; conditions: for pest or weed control at 80 g/ha: Tripleurospermum inodorum, 504 h
Source text: as §1

SETVI [6] = assay: Pre-emergence herbicidal action against SETVI; format: in vivo, Setaria viridis; conditions: dosage 80 g/ha
Source text: as §1

VERPE = assay: Pre-emergence herbicidal action against VERPE; format: in vivo, Veronica persica; conditions: dosage 80 g/ha; for pest or weed control at 80 g/ha: Veronica persica, 504 h
Source text: as §1

VIOTR = assay: Pre-emergence herbicidal action against VIOTR; format: in vivo, Viola tricolor; conditions: for pest or weed control at 80 g/ha: Viola tricolor, 504 h
Source text: as §1

DIGSA [7] = assay: Pre-emergence herbicidal action against DIGSA; format: in vivo, Digitaria sanguinalis
Source text: as §1

ABUTH [8] = assay: Post-emergence herbicidal action against ABUTH; format: in vivo, Abutilon theophrasti; conditions: visual assessment about 3 weeks after treatment vs untreated controls
Description: (§2) Seeds of monocotyledonous and dicotyledonous weed and crop plants are laid out in sandy loam soil in wood-fiber pots, covered with soil and cultivated in a greenhouse under good growth conditions. 2 to 3 weeks after sowing, the test plants are treated at the one-leaf stage. The compounds of the invention, formulated in the form of wettable powders (WP) or as emulsion concentrates (EC), are then sprayed onto the green parts of the plants in the form of an aqueous suspension or emulsion at a water application rate equivalent to 600 to 800 l/ha, with addition of 0.2% wetting agent. After the test plants have been left to stand in the greenhouse under optimal growth conditions for about 3 weeks, the action of the preparations is assessed visually in comparison to untreated controls (herbicidal action in percent (%): 100% activity=the plants have died, 0% activity=like control plants). […] The tables below illustrate, in an illustrative manner, the post-emergence herbicidal action of the compounds of the invention, the herbicidal activity being stated in percent.

AMARE [9] = assay: Post-emergence herbicidal action against AMARE; format: in vivo, Amaranthus retroflexus; conditions: 20 g/ha, visual assessment about 3 weeks after treatment, 100% = plants have died, 0% = like control plants; for pest or weed control at 20 g/ha: Amaranthus retroflexus, 504 h
Description: as §2

ECHCG [10] = assay: Post-emergence herbicidal action against ECHCG; format: in vivo, Echinochloa crus-galli; conditions: for pest or weed control at 20 g/ha: Echinochloa crus-galli, 504 h
Description: as §2

MATIN [11] = assay: Post-emergence herbicidal action against MATIN; format: in vivo, Matricaria inodora; conditions: dosage 20 g/ha
Description: as §2

PHBPU = assay: Post-emergence herbicidal action against PHBPU; format: in vivo, Pharbitis purpurea; conditions: dosage 20 g/ha
Description: as §2

SETVI [12] = assay: Post-emergence herbicidal action against SETVI; format: in vivo, Setaria viridis; conditions: for pest or weed control at 20 g/ha: Setaria viridis, 504 h
Description: as §2

ALOMY [13] = assay: Post-emergence herbicidal action against ALOMY; format: in vivo, Alopecurus myosuroides; conditions: dosage 20 g/ha, visual assessment about 3 weeks after treatment vs untreated controls
Description: as §2

DIGSA [14] = assay: Post-emergence herbicidal action against DIGSA; format: in vivo, Digitaria sanguinalis
Description: as §2

[15] = 20 g/ha, scored visually after 3 weeks vs untreated controls, 100% = plants have died, 0% = like control plants
[16] = 80 g/ha, scored visually after 3 weeks vs untreated controls (100% = plants have died, 0% = like control plants)
[17] = 80 g/ha, scored visually after 3 weeks vs untreated controls, 100% = plants have died, 0% = like control plants

Structure (SMILES) | Pre-emergence action against ABUTH (herbicidal activity) (ABUTH [1]) | Pre-emergence action against ABUTH (herbicidal activity in percent) (ABUTH [1]) | Pre-emergence action against ALOMY (herbicidal activity) (ALOMY [2]) | Pre-emergence action against AMARE in % (AMARE [3]; [15]) | Pre-emergence action against AMARE in % (AMARE [3]; [16]) | Pre-emergence action against ECHCG in % (ECHCG [4]) | Pre-emergence action against MATIN in % (MATIN [5]; dosage 20 g/ha) | Pre-emergence action against MATIN in % (MATIN [5]; dosage 80 g/ha) | Pre-emergence action against SETVI in % (SETVI [6]) | Pre-emergence action against VERPE in % (VERPE) | Pre-emergence action against VIOTR in % (VIOTR; dosage 80 g/ha) | Pre-emergence action against DIGSA in % (DIGSA [7]; dosage 80 g/ha) | Post-emergence action against ABUTH in % (ABUTH [8]; dosage 20 g/ha) | Post-emergence action at 20 g/ha against AMARE in % (AMARE [9]) | Post-emergence action against ECHCG in % (ECHCG [10]; dosage 20 g/ha) | Post-emergence action against MATIN in % (MATIN [11]) | Post-emergence action against PHBPU in % (PHBPU) | Pre-emergence action against DIGSA in % (DIGSA [7]; dosage 20 g/ha) | other results
CCn1nnnc1NC(=O)c1ccc(C(F)F)c(C(=O)NCC(F)(F)F)c1Br [Example 2-229] | 100% | 80% | 90% | 100% | 100% | 80% | 100% | 100% | 100% | 80% | 100% | 100% | 80% | 90% | 90% | 80% | 90% |  | Pre-emergence action against AVEFA in % (AVEFA): 90%; Post-emergence action against SETVI in % (SETVI [12]; dosage 20 g/ha): 80%
Cn1nnnc1NC(=O)c1ccc(C(F)(F)F)c(C(=O)NCc2cccs2)c1Cl [Example 1-144] |  |  |  | 90% | 100% | 100% | 90% | 90% | 80% | 80% | 100% | 90% |  | 90% |  |  |  | 90% | Pre-emergence action against VIOTR in % (VIOTR; dosage 20 g/ha): 80%
CN(C)C(=O)CNC(=O)c1c(C(F)(F)F)ccc(C(=O)Nc2nnnn2C)c1Cl [Example 1-142] |  |  |  |  | 100% |  |  | 90% |  |  | 90% |  |  | 90% |  |  |  |  | Post-emergence action against ALOMY in % (ALOMY [13]): 90%
Cc1nnc(NC(=O)c2ccc(C(F)F)c(C(=O)NCc3cccs3)c2Cl)o1 [Example 6-264] |  |  |  | 80% | 100% |  |  |  | 80% | 90% |  |  |  | 80% |  |  |  |  | Post-emergence action against DIGSA (DIGSA [14]; 20 g/ha): 80%
CCn1nnnc1NC(=O)c1ccc(C(F)F)c(C(=O)Nc2ccccc2)c1Cl [Example 2-161] | 100% | 90% |  | 90% | 100% |  | 80% | 90% |  | 80% | 100% |  | 80% | 100% |  | 80% | 80% |  | 
Cc1nnc(NC(=O)c2ccc(Br)c(C(=O)NCC(F)F)c2Cl)o1 [Example 6-145] | 100% | 100% | 90% | 90% | 100% | 90% |  |  | 100% |  |  | 100% |  |  |  |  | 80% | 90% | Post-emergence action against ALOMY in % (ALOMY [13]): 80%; Post-emergence action against SETVI in % (SETVI [12]; dosage 5 g/ha): 80%; Post-emergence action against SETVI in % (SETVI [12]; dosage 20 g/ha): 90%
Cc1nnc(NC(=O)c2ccc(C(F)F)c(C(=O)NC(C)C3CC3)c2Br)o1 (stereo not drawn) [Example 6-267] | 100% | 90% | 80% | 90% | 100% | 80% | 90% | 100% | 80% | 90% | 80% |  | 80% | 90% | 90% |  | 80% |  | 
Cc1c(C(=O)Nc2nnnn2C)ccc(C(F)(F)F)c1C(=O)NC1COC1 [Example 1-41] |  |  |  |  |  |  |  |  |  |  |  |  |  |  |  |  |  |  | pest or weed control at 80 g/ha (ABUTH [1]): 100%; pest or weed control at 20 g/ha (AMARE [3]; [15]): 90%; pest or weed control at 80 g/ha (AMARE [3]; [17]): 100%; pest or weed control at 80 g/ha (MATIN [5]; dosage 80 g/ha): 100%; pest or weed control at 80 g/ha (VERPE): 90%; pest or weed control at 80 g/ha (VIOTR; dosage 80 g/ha): 100%; pest or weed control at 80 g/ha (DIGSA [7]; Digitaria sanguinalis, 504 h, dosage 80 g/ha): 100%; pest or weed control at 5 g/ha (ABUTH [8]; Abutilon theophrasti, 504 h, dosage 5 g/ha): 80%; pest or weed control at 20 g/ha (ABUTH [8]; Abutilon theophrasti, 504 h, dosage 20 g/ha): 80%; pest or weed control at 20 g/ha (AMARE [9]): 90%; pest or weed control at 20 g/ha (ECHCG [10]; dosage 20 g/ha): 90%; pest or weed control at 20 g/ha (SETVI [12]; dosage 20 g/ha): 80%; pest or weed control at 5 g/ha (DIGSA [14]; Digitaria sanguinalis, 504 h, 5 g/ha): 80%; pest or weed control at 20 g/ha (DIGSA [14]; Digitaria sanguinalis, 504 h, 20 g/ha): 90%
Cc1nnc(NC(=O)c2ccc(C(F)F)c(C(=O)NC(C)C)c2Cl)o1 [Example 6-260] | 100% | 90% | 90% | 100% | 100% | 100% | 100% | 100% | 100% | 90% |  | 100% | 90% | 80% | 90% | 80% | 90% | 100% | Post-emergence action against ECHCG in % (ECHCG [10]; dosage 5 g/ha): 90%; Post-emergence action against DIGSA in % (DIGSA [14]; 5 g/ha): 90%; Post-emergence action against DIGSA (DIGSA [14]; 20 g/ha): 90%
CCNC(=O)c1c(Cl)ccc(C(=O)Nc2nnnn2C)c1Br [Example 1-350] |  |  |  |  |  |  |  |  |  |  |  |  |  |  |  |  |  |  | pest or weed control at 80 g/ha (ABUTH [1]): 100%; pest or weed control at 80 g/ha (ALOMY [2]; Alopecurus myosuroides, 504 h): 100%; pest or weed control at 20 g/ha (AMARE [3]; [15]): 100%; pest or weed control at 80 g/ha (AMARE [3]; [17]): 100%; pest or weed control at 80 g/ha (AVEFA; Avena fatua, 504 h): 90%; pest or weed control at 80 g/ha (ECHCG [4]; Echinochloa crus-galli, 504 h): 100%; pest or weed control at 80 g/ha (MATIN [5]; dosage 80 g/ha): 90%; pest or weed control at 80 g/ha (SETVI [6]; Setaria viridis, 504 h): 100%; pest or weed control at 80 g/ha (VERPE): 80%; pest or weed control at 80 g/ha (VIOTR; dosage 80 g/ha): 100%; pest or weed control at 20 g/ha (AMARE [9]): 100%; pest or weed control at 20 g/ha (ECHCG [10]; dosage 20 g/ha): 80%; pest or weed control at 20 g/ha (SETVI [12]; dosage 20 g/ha): 80%
